The text below walks through data of US11370774B2, “Substituted benzofuran, benzopyrrole, benzothiophene, and structurally related complement inhibitors” (BioCryst Pharmaceuticals, Inc., priority 2018, dated 2022).

Where only a bound is given, the exact number is not on record here.

What is called IC50 is the concentration that gives 50% inhibition.

Chain of Factor D (P00746 26-253): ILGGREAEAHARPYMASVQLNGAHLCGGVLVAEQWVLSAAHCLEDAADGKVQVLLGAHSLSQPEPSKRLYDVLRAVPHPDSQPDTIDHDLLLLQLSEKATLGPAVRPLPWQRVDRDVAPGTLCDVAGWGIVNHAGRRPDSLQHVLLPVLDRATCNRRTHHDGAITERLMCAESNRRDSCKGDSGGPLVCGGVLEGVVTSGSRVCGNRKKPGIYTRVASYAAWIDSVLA

This experiment concerns the target Factor D (Homo sapiens (Human), UniProt P00746). The experiment is described as follows: Factor D esterolytic assay (Z-Lys-SBzl substrate, DTNB, 405 nm). Type of experiment: biochemical. The note with it: Z-Lys-SBzl 1.29 mM, pH 7.5, 10% DMSO, tested a minimum of three times, read-out: Measured Ki (IC50) Value for Compounds: IC50. The method in brief: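 Thioester hydrolysis (Z-Lys-SBzl, 1.29 mM) by human Factor D ([…]) detected through DTNB color at 405 nm over 600 sec, minus 690 nm background. Buffer: 100 mM HEPES pH 7.5, 500 mM NaCl, 10% DMSO; optional room-temperature preincubation before substrate. IC50 derived from percent rate inhibition; at least three runs.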
Regarding `C[C@@H](N)c1cccc(-c2cc(COc3ccccc3CC(=O)O)cc3ccoc23)c1F` [Compound 65c, (R)-2-(2-((7-(3-(1-aminoethyl)-2-fluorophenyl)benzofuran-5-yl)methoxy)phenyl)acetic acid], the IC50 is less than 1000 nM.
The result for `C[C@H](N)c1cccc(-c2cc(COc3ccccc3CC(=O)O)cc3ccoc23)c1F` [Compound 66c, (S)-2-(2-((7-(3-(1-aminoethyl)-2-fluorophenyl)benzofuran-5-yl)methoxy)phenyl)acetic acid] reads less than 1000 nM; that for `N[C@H](CO)c1cccc(-c2cc(COc3ccccc3CC(=O)O)cc3ccoc23)c1F` [Compound 67c, (S)-2-(2-((7-(3-(1-amino-2-hydroxyethyl)-2-fluorophenyl)benzofuran-5-yl)methoxy)phenyl)acetic acid], less than 1000 nM.
Regarding `Cc1c(CN)cccc1-c1cc(COc2ccccc2CC(=O)O)cc2ccoc12` [Compound 68c, 2-(2-((7-(3-(aminomethyl)-2-methylphenyl)benzofuran-5-yl)methoxy)phenyl)acetic acid], the IC50 is less than 1000 nM.
For the molecule `NCc1cc(F)cc(-c2cc(COc3ccccc3CC(=O)O)cc3[nH]ccc23)c1` [Compound 69e, 2-(2-((4-(3-(aminomethyl)-5-fluorophenyl)-1H-indol-6-yl)methoxy)phenyl)acetic acid], the IC50 is less than 1000 nM.
Take `NCc1cccc(-c2cc(COc3ccccc3CC(=O)O)cc3[nH]ccc23)c1` [Compound 70a, 2-(2-((4-(3-(aminomethyl)phenyl)-1H-indol-6-yl)methoxy)phenyl)acetic acid]: the IC50 is less than 1000 nM.
With `NCc1cccc(-c2cc(COc3ccccc3CC(=O)O)c3nccn3c2)c1` [Compound 71e, 2-(2-((6-(3-(aminomethyl)phenyl)imidazo[1,2-a]pyridin-8-yl)methoxy)phenyl)acetic acid] the figure was less than 1000 nM; with `C[C@H](N)c1cccc(-c2cc(COc3ccccc3CC(=O)O)cc3ccoc23)c1` [Compound 72c, (S)-2-(2-((7-(3-(1-aminoethyl)phenyl)benzofuran-5-yl)methoxy)phenyl)acetic acid], less than 1000 nM; with `NCc1cc(F)cc(-c2cc(COc3ccccc3CC(=O)O)cc3ccoc23)c1` [Compound 73c, 2-(2-((7-(3-(aminomethyl)-5-fluorophenyl)benzofuran-5-yl)methoxy)phenyl)acetic acid], less than 1000 nM.
With `NCc1cc(-c2cc(COc3ccccc3CC(=O)O)cc3ccoc23)ccn1` [Compound 74c, 2-(2-((7-(2-(aminomethyl)pyridin-4-yl)benzofuran-5-yl)methoxy)phenyl)acetic acid] the figure was less than 1000 nM; with `NCc1c(F)ccc(-c2cc(COc3ccccc3CC(=O)O)cc3ccoc23)c1F` [Compound 75c, 2-(2-((7-(3-(aminomethyl)-2,4-difluorophenyl)benzofuran-5-yl)methoxy)phenyl)acetic acid], less than 1000 nM; with `NCc1cccc(-c2cc(COc3ccccc3CC(=O)O)cc3cc(CO)oc23)c1` [Compound 76f, 2-(2-((7-(3-(aminomethyl)phenyl)-2-(hydroxymethyl)benzofuran-5-yl)methoxy)phenyl)acetic acid], less than 1000 nM.
The result for `N[C@H](CO)c1cc(-c2cc(COc3ccccc3CC(=O)O)cc3ccoc23)ccn1` [Compound 77c, (S)-2-(2-((7-(2-(1-amino-2-hydroxyethyl)pyridin-4-yl)benzofuran-5-yl)methoxy)phenyl)acetic acid] reads less than 1000 nM.
Take `C[C@@H](N)c1cccc(-c2cc(COc3ccccc3CC(=O)O)cc3ccoc23)c1` [Compound 78c, (R)-2-(2-((7-(3-(1-aminoethyl)phenyl)benzofuran-5-yl)methoxy)phenyl)acetic acid]: the IC50 was less than 1000 nM.
Take `NCc1cccc(-c2cc(COc3ccccc3CC(=O)O)cc3ccoc23)n1` [Compound 79c, 2-(2-((7-(6-(aminomethyl)pyridin-2-yl)benzofuran-5-yl)methoxy)phenyl)acetic acid]: the IC50 is less than 1000 nM.
The result for `NCc1nccc(-c2cc(COc3ccccc3CC(=O)O)cc3ccoc23)c1F` [Compound 80e, 2-(2-((7-(2-(aminomethyl)-3-fluoropyridin-4-yl)benzofuran-5-yl)methoxy)phenyl)acetic acid] reads less than 1000 nM; that for `Cc1c[nH]c2cc(C(=O)Nc3ccccc3CC(=O)O)cc(-c3cccc(CN)c3)c12` [Compound 81d, 2-(2-(4-(3-(aminomethyl)phenyl)-3-methyl-1H-indole-6-carboxamido)phenyl)acetic acid], greater than 10000 nM; that for `NCc1cccc(-c2cc(COc3ccccc3CC(=O)O)cc3cc(C4CCCC4)oc23)c1` [Compound 82f, 2-(2-((7-(3-(aminomethyl)phenyl)-2-cyclopentylbenzofuran-5-yl)methoxy)phenyl)acetic acid], less than 1000 nM.
As to `NCc1cccc(-c2nc(C(=O)Nc3ccccc3CC(=O)O)cc3[nH]ccc23)c1` [Compound 83h, 2-(2-(4-(3-(aminomethyl)phenyl)-1H-pyrrolo[3,2-c]pyridine-6-carboxamido)phenyl)acetic acid], the IC50 was less than 1000 nM.
The result for `Cc1cc2cc(COc3ccccc3CC(=O)O)cc(-c3cccc(CN)c3)c2o1` [Compound 84f, 2-(2-((7-(3-(aminomethyl)phenyl)-2-methylbenzofuran-5-yl)methoxy)phenyl)acetic acid] reads less than 1000 nM.
`N=C(N)c1cccc(-c2cc(COc3ccccc3CC(=O)O)cc3ccoc23)c1` [Compound 85c, 2-(2-((7-(3-carbamimidoylphenyl)benzofuran-5-yl)methoxy)phenyl)acetic acid]: the IC50 is less than 1000 nM.
With `NC(=O)c1cccc(-c2cc(COc3ccccc3CC(=O)O)cc3ccoc23)c1` [Compound 85d, 2-(2-((7-(3-carbamoylphenyl)benzofuran-5-yl)methoxy)phenyl)acetic acid] the figure was 1000 to 10000 nM; with `NCc1cccc(-c2cc(COc3ccccc3CC(=O)O)nc3[nH]ccc23)c1F` [Compound 86b, 2-(2-((4-(3-(aminomethyl)-2-fluorophenyl)-1H-pyrrolo[2,3-b]pyridin-6-yl)methoxy)phenyl)acetic acid], less than 1000 nM; with `Nc1nccc2ccc(-c3cc(COc4ccccc4CC(=O)O)cc4ccoc34)cc12` [Compound 87c, 2-(2-((7-(1-aminoisoquinolin-7-yl)benzofuran-5-yl)methoxy)phenyl)acetic acid], greater than 10000 nM.
With `NCc1cccc(-c2cc(COc3ccccc3CC(=O)O)cc3cc(C4CC4)oc23)c1F` [Compound 88b, 2-(2-((7-(3-(aminomethyl)-2-fluorophenyl)-2-cyclopropylbenzofuran-5-yl)methoxy)phenyl)acetic acid] the figure was less than 1000 nM.
The result for `Cc1cc(CN)cc(-c2cc(COc3ccccc3CC(=O)O)cc3ccoc23)c1` [Compound 89c, 2-(2-((7-(3-(aminomethyl)-5-methylphenyl)benzofuran-5-yl)methoxy)phenyl)acetic acid] reads less than 1000 nM.
With `NCc1nccc(-c2cc(COc3ccc(F)cc3CC(=O)O)cc3ccoc23)c1F` [Compound 90d, 2-(2-((7-(2-(aminomethyl)-3-fluoropyridin-4-yl)benzofuran-5-yl)methoxy)-5-fluorophenyl)acetic acid], the IC50 is less than 1000 nM.
